According to patent US10441630B2, “Topical formulations and uses thereof” (OCULAR TECHNOLOGIES SARL, priority 2012, dated 2019):

How the values were obtained:
[1] = Weight percent of drug loaded into MNF (entrapment, RP-HPLC); assay type: physicochemical; details: HCO-60 4 wt %, Octoxynol-40 0.01 wt %
Protocol: To determine the entrapment efficiency of the formulation, all the prepared formulations were subjected to entrapment efficiency test. Briefly, formulations were vortex mixed for homogeneity and 1 mL was transferred to a fresh (1.5 mL) eppendorf tube. Each formulation was lyophilized to obtain a solid at the bottom of eppendorf tube. The obtained solid was suspended in 1 mL of organic solvent (diethyl ether) to generate reverse micelles and release the drug into the external organic solvent. The organic solvent was evaporated overnight in speed vacuum. The resultant reversed micelles were resuspended in 1 mL of 2-propanol (dilution factor was taken into account) and further diluted to determine the concentration of compound 1001 entrapped in each micellar preparation with HPLC. The entrapment efficiency of the formulation was calculated with the following formula (wherein MNF=Mixed Nanomicellar Formulation): […]
In vitro analysis of compound 1001 was performed by a reversed phase high performance liquid chromatography (RP-HPLC) method with a Shimadzu HPLC pump (Shimadzu, Shimadzu Scientific instruments, Columbia, Md.), Alcott autosampler (model 718 AL), Shimadzu UV/Visible detector (Shimadzu, SPD-20A/20AV, USA), ODS column (5 μm, 150×4.6 mm) thermostated at 40°±1 C and Hewlett Packard HPLC integrator (Hewlett Packard, Palo Alto, Calif.). The mobile phase was comprised of methanol (MeOH), water and trifluoroacetic acid (TFA) (70:30:0.05% v/v) which was set at a flow rate of 0.5 mL/min. Detection wavelength was set at 272 nm. The sample tray temperature was maintained at 4° C. Calibration curve (0.5 to 5 μg/mL) for compound 1001 was prepared by making appropriate dilutions from the stock solution in 2-propanol. An injection volume of 10 μl was injected into the HPLC column for analysis. All the standards and samples prepared were stored at 4° C. before and during the analysis.
(§1) Mixed nanomicellar formulation encapsulating compound 1001 was prepared by solvent evaporation method in two steps: 1) Preparation of basic formulation and 2) rehydration. In step one, compound 1001, HCO-60 and octoxynol-40 were dissolved separately in 0.3 mL of ethyl acetate. These three solutions were mixed together in 15-mL centrifuge tube. The resultant mixture was vortexed to obtain a homogenous solution. Ethyl acetate solvent was removed with speed vacuum to obtain a solid thin film. The residue was kept overnight under high vacuum at room temperature to remove residual organic solvent. In step two, the resultant thin film was hydrated with 1 mL of double distilled deionized water by vortexing the solution. The rehydrated formulation was suspended in 2× phosphate buffer solution, (pH 6.5). It was filtered through 0.2 μm nylon filter membrane to remove the unentrapped drug aggregates and other foreign particulates. The entrapment of compound 1001 was determined by RP-HPLC following disruption of the micelles and solubilization of 1001 in the diluent (2-propanol) as described below
(§2) Weight percent of drug loaded into MNF was determined following the method for entrapment efficiency. Size and polydispersity index of the formulations was determined with Malvern zetasizer as described above. The formulations appear clear and have small size and narrow size distribution.

[2] = Ocular tissue distribution of compound 1001 and RX-10008 by LC-MS/MS; assay type: in vivo, rabbit
Protocol: A study was conducted in rabbits to test the tolerance and ocular tissue distribution of two nanomicellar formulations of compound 1001 (RX10045) against matching placebos (Table 7a and 7b) and balanced saline solution (BSS). Healthy New Zealand female white rabbits (2-3 kg) were used for this study. One drop (approximately 35 μL) of study drug was applied o.d. 4×/day at two hour intervals for 5 days. One drop of BSS was applied to the contralateral eye.
Selected ocular fluids/tissues (aqueous humor, vitreous humor, conjunctiva, cornea, iris-ciliary body, lens, retina/choroid, and sclera) collected from two rabbits each in the RX-10045 (0.15% in HCO-60, 0.1% in HCO-40) treatment groups, and from one rabbit in each of the matching placebo groups, were assayed for compound 1001 and another resolvin by liquid chromatography-tandem mass spectrometry (LC-MS/MS). Warfarin-d5 and 5-HDA were used as internal standards for the analysis of RX-10045 and its active metabolite, RX-10008, respectively, in aqueous humor and vitreous humor. For the other ocular tissues (solid tissues), warfarin-d5 and phenyl acetic acid-d5 (PAA-d5) were used as the internal standards for compound 1001 and RX-10008, respectively. The analytical range for the solid tissues were 0.125-100 ng. The results of the solid tissue analyses were converted to ng/g by correcting for the amount of tissue analyzed.

[3] = Appearance of compound 1001 MNF, solvent evaporation method; assay type: physicochemical; details: HCO-60 4 wt %, Octoxynol-40 0.01 wt %
Protocol: as §1, §2

[4] = Physical appearance, melt method, HCO-60 and compound 1001; assay type: physicochemical; details: 1001 4 wt %; for Resuspend in water: water at 40° C.; for Physical appearance at room temperature (25° C.): melt mixture
Protocol: The preparation of MNF encapsulating compound 1001 (neat oil) can be divided into two steps. […] […] To this melt polymer compound 1001 (˜20 mg), thermostated at 40° C., was added and mixed for homogenous distribution. […] (in refrigerator).
This aqueous solution was allowed to reach room temperature, under natural conditions. The pH of the solution was adjusted to 5.5 and the volume was made up with 2× phosphate buffer saline (pH 5.5) containing octoxynol-40 (0.01 wt %) and PVP-K-90 (1.2 wt %). The formulation was filtered through 0.2 μm nylon filter to remove any foreign material and obtain a clear homogenous aqueous RX-1001 formulation.
The results obtained for physical appearance of the mixture, different phases, at different temperatures and appearance of final formulation are summarized in Tables 3a-3c.

[5] = 1001 initially added 0.035 wt %
[6] = 1001 initially added 0.070 wt %
[7] = 1001 initially added 0.095 wt %
[8] = 1001 initially added 0.120 wt %
[9] = 1001 initially added 0.250 wt %
[10] = 1001 initially added 0.300 wt %
[11] = 1001 initially added 0.400 wt %
[12] = rabbits, RX-10045 formulations 4×/day for 5 days

- hydrolysis to active metabolite RX-10008 ([2]; rabbit ocular tissues): rapidly hydrolyzed
- concentrations of the compound 1001 ester prodrug in the sclera and conjunctiva [2, 12]: sporadic, relatively low
- Final formulation (make up with 2X buffer containing 0.01% Oc-40) ([4]; HCO-60 1.0 wt %): Emulsion
- Resuspend in water ([4]; HCO-60 1.0 wt %): Emulsion
- Final formulation (make up with 2X buffer containing 0.01% Oc-40) ([4]; HCO-60 2.0 wt %): Pale yellow clear
- Resuspend in water ([4]; HCO-60 2.0 wt %): Forms pale
- Final formulation (make up with 2X buffer containing 0.01% Oc-40) ([4]; HCO-60 2.25 wt %): Pale yellow clear
- Resuspend in water ([4]; HCO-60 2.25 wt %): Forms pale
- Final formulation (make up with 2X buffer containing 0.01% Oc-40) ([4]; HCO-60 2.5 wt %): Pale yellow clear
- Resuspend in water ([4]; HCO-60 2.5 wt %): Forms very
- Final formulation (make up with 2X buffer containing 0.01% Oc-40) ([4]; HCO-60 2.75 wt %): Clear solution
- Resuspend in water ([4]; HCO-60 2.75 wt %): Forms very
- Final formulation (make up with 2X buffer containing 0.01% Oc-40) ([4]; HCO-60 3.0 wt %): Clear solution
- Resuspend in water ([4]; HCO-60 3.0 wt %): Clear solution
- Final formulation (make up with 2X buffer containing 0.01% Oc-40) ([4]; HCO-60 3.5 wt %): Clear solution
- Resuspend in water ([4]; HCO-60 3.5 wt %): Clear solution
- Final formulation (make up with 2X buffer containing 0.01% Oc-40) ([4]; HCO-60 4.0 wt %): Clear solution
- Resuspend in water ([4]; HCO-60 4.0 wt %): Clear solution
- Physical appearance at room temperature (25° C.) ([4]; HCO-60 1.0 wt %): Pale yellow half
- Physical appearance at room temperature (25° C.) ([4]; HCO-60 2.0 wt %): Pale yellow
- Physical appearance at room temperature (25° C.) ([4]; HCO-60 2.25 wt %): Pale yellow waxy
- Physical appearance at room temperature (25° C.) ([4]; HCO-60 2.5 wt %): Pale yellow waxy
- Physical appearance at room temperature (25° C.) ([4]; HCO-60 2.75 wt %): Pale yellow waxy
- Physical appearance at room temperature (25° C.) ([4]; HCO-60 3.0 wt %): Pale yellow waxy
- Physical appearance at room temperature (25° C.) ([4]; HCO-60 3.5 wt %): Pale yellow waxy
- Physical appearance at room temperature (25° C.) ([4]; HCO-60 4.0 wt %): Pale yellow waxy
SMILES: C#CC[C@@H](O)/C=C/C=C/C#C[C@@H](O)CCCC(=O)OC(C)C [compound 1001]
- 1001 (loaded in mixed micelles) wt % [1, 5]: 0.033 wt %
- 1001 (loaded in mixed micelles) wt % [1, 6]: 0.065 wt %
- 1001 (loaded in mixed micelles) wt % [1, 7]: 0.084 wt %
- 1001 (loaded in mixed micelles) wt % [1, 8]: 0.11 wt %
- 1001 (loaded in mixed micelles) wt % [1, 9]: 0.26 wt %
- 1001 (loaded in mixed micelles) wt % [1, 10]: 0.32 wt %
- 1001 (loaded in mixed micelles) wt % [1, 11]: 0.45 wt %
- compound 1001 in the majority of ocular tissues [2, 12]: either not detected or was below the quantitation limit
- Result [3, 5]: Clear/transparent
- Result [3, 6]: Clear/transparent
- Result [3, 7]: Clear/transparent
- Result [3, 8]: Pale yellow color
- Result [3, 9]: Yellow color
- Result [3, 10]: Yellow color
- Result [3, 11]: Yellow color
